Test results from PubChem BioAssay (NCI).
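Growth conditions: 96-well plates. Treatment: test compound, 48 hours, 5 concentrations. Analysis: linear interpolation between bracketing concentrations; unreached endpoints set to highest concentration. Abbreviation: GI50, concentration required for 50% inhibition of growth. Definition used: TGI = concentration required for complete inhibition of growth.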

What was measured:
Assay in all cases: NCI anticancer screen, dose series, 48 h
HT29 colon = test system: HT29 colon
HL-60(TB) leukemia = test system: HL-60(TB) leukemia
SF-539 CNS = test system: SF-539 CNS
EKVX NSCLC = test system: EKVX NSCLC
NCI-H460 lung = test system: NCI-H460 lung
K-562 leukemia = test system: K-562 leukemia
COLO 205 colon = test system: COLO 205 colon
OVCAR-8 ovarian = test system: OVCAR-8 ovarian
PC-3 prostate = test system: PC-3 prostate
SR leukemia = test system: SR leukemia

SMILES | TGI (HT29 colon) [µM] | TGI (HL-60(TB) leukemia) [µM] | TGI (SF-539 CNS) [µM] | TGI (EKVX NSCLC) [µM] | TGI (NCI-H460 lung) [µM] | TGI (K-562 leukemia) [µM] | TGI (COLO 205 colon) [µM] | GI50 (OVCAR-8 ovarian) [nM] | TGI (OVCAR-8 ovarian) [µM] | GI50 (PC-3 prostate) [µM] | TGI (PC-3 prostate) [µM] | GI50 (SF-539 CNS) [µM] | GI50 (SR leukemia) [nM] | TGI (SR leukemia) [µM] | GI50 (NCI-H460 lung) [µM] | GI50 (K-562 leukemia) [nM] | GI50 (HT29 colon) [µM] | GI50 (EKVX NSCLC) [µM] | GI50 (COLO 205 colon) [µM]
COc1ccc(NC(=O)C(=O)c2c(O)c3ccc(O)cc3oc2=O)c([N+](=O)[O-])c1 | > 100 | > 100 | > 100 | > 100 | > 100 | > 100 | > 100 |  |  |  |  |  |  |  |  |  |  |  | 
Cc1nc2ccc(Nc3nc(Cl)nc(N4CCOCC4)n3)cc2n1Cc1ccccc1 |  |  | 47.6 |  | > 100 | > 100 |  | 2950 | > 100 | 10 | > 100 | 14.2 | 2830 | > 100 | 11.9 | 2820 |  |  | 
CCC(C)CCOC(=O)c1ccc(N=Cc2ccc(C=Nc3ccc(C(=O)OCCC(C)CC)cc3)cc2)cc1 (stereo not given) | > 100 | > 100 | > 100 | > 100 | > 100 | > 100 | > 100 |  | > 100 |  |  |  |  | > 100 |  |  |  |  | 
CC(C)C1=CC(=O)C(C)(C2C(O)CC3(C)C4CC=C5C(CCC(OC6OC(CO)C(O)C(O)C6OC6OC(C)C(O)C(O)C6O)C5(C)C)C4(C)C(=O)CC23C)O1 (stereo not given) | > 100 |  | > 100 | > 100 | > 100 | > 100 | > 100 |  | > 100 |  | > 100 |  |  |  |  |  |  |  | 
Cc1c(Cl)cccc1NC(=O)C(=O)C(C(=O)c1ccccc1-c1ccccc1)C1OC(=O)c2ccccc21 (stereo not given) | > 100 | 49.8 | 28.1 | 59 | 76.3 | > 100 | 39.7 |  | > 100 |  |  |  |  |  |  |  |  |  | 
O=C1NC(Cc2ccc(O)cc2)C(=O)N2CCCC12 (stereo not given) | > 100 | > 100 | > 100 | > 100 | > 100 | > 100 | > 100 |  | > 100 |  |  |  |  | > 100 |  |  |  |  | 
COC(=O)C1CCc2c1c(=O)n1c([nH]c3ccccc31)c2C#N (stereo not given) | > 100 | > 100 | > 100 | > 100 | > 100 | > 100 | > 100 |  | > 100 |  |  |  |  |  |  |  |  |  | 
CN1c2ccccc2N(C(=O)c2ccc([N+](=O)[O-])cc2)C(CC(=O)O)c2cccn21 (stereo not given) | > 100 | > 100 | > 100 | > 100 | > 100 | > 100 | > 100 |  | > 100 |  |  |  |  |  |  |  |  |  | 
N.N.N.N.N.[Co+3].[I-].[N-]=[N+]=[N-] | > 100 |  | > 100 | > 100 | > 100 | > 100 | > 100 | > 100000 | > 100 |  |  | > 100 |  |  | > 100 | > 100000 | > 100 | > 100 | > 100
Cc1ccc(S(=O)(=O)OCCn2cnc3nc(NC(=O)c4ccccc4)[nH]c(=O)c32)cc1 | > 100 | > 100 | > 100 | > 100 | > 100 | > 100 | > 100 |  | > 100 |  |  |  |  | > 100 |  |  |  |  | 
CCCCCN(CCCCC)C(=O)[C@@H](CCC(=O)O)NC(=O)c1cc2ccccc2[nH]1 | > 100 | 41.2 | 49.4 | > 100 | > 100 | > 100 | 94.9 |  | > 100 |  |  |  |  |  |  |  |  |  | 
